Drawing on patent US8846666B2, “Oxathiazine derivatives which are substituted with benzyl or heteromethylene groups, method for producing them, their use as medicine and drug containing said derivatives and the use thereof” (Sanofi, priority 2011, dated 2014), this text covers IC50 for 17 compounds.

This experiment deals with human 11β-HSD1 microsome fraction (Homo sapiens, UniProt P28845). In words: Enzymatic 11Beta-HSD1 test (SPA-based detection). Type of experiment: biochemical. Conditions: [1,2-3H]-cortisone, NADPH, 37° C. for 1 hour. The method, then:
Enzymatic 11Beta-HSD1 Test:
To measure the activity of the compounds, an SPA-based detection method (Solly et al. 2005) was employed. First of all, 20 μl of the human 11β-HSD1 microsome fraction (0.2 μg of protein), prepared in 50 mM HEPES, 0.1% BSA (w/v), were applied to a plate with 384 wells. The test compounds (0.09 μl) were applied to the assay plate in 100% DMSO. The reaction was started by addition of 20 μl of [1,2-^3H]-cortisone (0.1 μCi/[…]) in assay buffer comprising 25 mM HEPES, 100 mM KCl, 5 mM NaCl, 2 mM MgCl2 and 0.25 mM NADPH. The plate was agitated at 37° C. for 1 hour. At the same time, a stop solution comprising 20 mg/ml SPA-PVT beads, 1.6 mg/ml monoclonal cortisol antibody and 0.01 mM SSR110887 (inhibitor from the Biovitrium patent) in 50 mM HEPES, 1 M NaCl and 1 M KCl was stirred at room temperature. To stop the reaction, 25 μl of the stop solution were added to each well. The plate was agitated gently at room temperature for 1 further hour and then centrifuged at 500 gav for 1 min, in order that the SPA beads could settle out. The plate was then read in a Wallac-1450-Microbeta unit with a standard SPA program (counting time 1 min/well). The comparative compound was glycyrrhetinic acid.
Protein and radioactive substrate were dispensed with a Biomek FX unit (Beckman Coulter) for handling liquids. The test compounds were added with a Cybi-Well equipped with a 90 nl pin tool (CyBio).
Lit.: Solly S, Mundt S S, Zokian H J, Juy-Fang Ding G, Hermanowski-Vosatka A, Strulovici B and Zheng W. High-throughput screening of 11β-Hydroxysteroid dehydrogenase type 1 in scintillation proximity format. Assay Drug Dev Technol 2005; 3:377-384.

Chain of human 11β-HSD1 microsome fraction (P28845 whole entry): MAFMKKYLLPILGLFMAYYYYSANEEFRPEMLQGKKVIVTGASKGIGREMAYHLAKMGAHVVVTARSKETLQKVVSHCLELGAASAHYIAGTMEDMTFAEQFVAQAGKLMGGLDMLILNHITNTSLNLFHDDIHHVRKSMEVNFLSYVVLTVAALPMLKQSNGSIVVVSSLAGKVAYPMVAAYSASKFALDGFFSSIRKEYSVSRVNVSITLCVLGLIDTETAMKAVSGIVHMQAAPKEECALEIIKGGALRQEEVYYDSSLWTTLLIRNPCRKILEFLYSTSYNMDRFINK

A word on the IC50: it is the point on the concentration scale where inhibition reaches its midpoint. `CC1(C)OC(N[C@@H](CCO)c2ccccc2F)=NS(=O)(=O)[C@H]1Cc1ccc(C2CCNCC2)cc1` [Example 35, (S)-3-[(S)-6,6-Dimethyl-4,4-dioxo-5-(4-piperidin-4-yl-benzyl)-5,6-dihydro-4H-4lambda6-[1,4,3]oxathiazin-2-ylamino]-3-(2-fluorophenyl)-propan-1-ol]: half-maximal inhibition (IC50) was put at 11 nM. Compound `CN(CCO)CCCc1ccc(CC2C(C)(C)OC(N[C@@H](CCO)c3ccccc3F)=NS2(=O)=O)cc1` (some centres unmarked) [Example 36] gave an IC50 of 38 nM. To `C[C@H](NC1=NS(=O)(=O)C(Cc2ccc(C3CCN(CCO)CC3)cc2)C(C)(C)O1)c1ccccc1F` (stereo partly drawn) [Example 37, 2-[4-(4-{2-[(S)-1-(2-fluorophenyl)-ethylamino]-6,6-dimethyl-4,4-dioxo-5,6-dihydro-4H-4lambda6-[1,4,3]oxathiazin-5-ylmethyl}-phenyl)-piperidin-1-yl]-ethanol] belongs 37 nM; to `C[C@H](NC1=NS(=O)(=O)C(Cc2ccc(C3CCNCC3)cc2)C(C)(C)O1)c1ccccc1F` (stereo partly drawn) [Example 38, [6,6-Dimethyl-4,4-dioxo-5-(4-piperidin-4-yl-benzyl)-5,6-dihydro-4H-4lambda6-[1,4,3]oxathiazin-2-yl]-[(S)-1-(2-fluorophenyl)-ethyl]-amine], 7 nM. Regarding `C[C@H](NC1=NS(=O)(=O)C(Cc2ccc(N3CCN(C(C)(C)C)CC3)cc2)C(C)(C)O1)c1ccccc1F` (stereo partly drawn) [Example 39, {5-[4-(4-tert-Butyl-piperazin-1-yl)-benzyl]-6,6-dimethyl-4,4-dioxo-5,6-dihydro-4H-4lambda6-[1,4,3]oxathiazin-2-yl}-[(S)-1-(2-fluorophenyl)-ethyl]-amine], the IC50 is 17 nM. Regarding `COCCN1CCC(c2ccc(CC3C(C)(C)OC(N[C@@H](C)c4ccccc4F)=NS3(=O)=O)cc2)CC1` (stereo partly drawn) [Example 40, [(S)-1-(2-fluorophenyl)-ethyl]-(5-{4-[1-(2-methoxy-ethyl)-piperidin-4-yl]-benzyl}-6,6-dimethyl-4,4-dioxo-5,6-dihydro-4H-4lambda6-[1,4,3]oxathiazin-2-yl)-amine], it took 25 nM to reach half-maximal inhibition (IC50). `CC1(C)OC(N[C@@H](CCO)c2ccccc2F)=NS(=O)(=O)[C@@H]1Cc1ccc(C2CCN(C3CC3)CC2)cc1` [Example 41, (S)-3-{(R)-5-[4-(1-Cyclopropyl-piperidin-4-yl)-benzyl]-6,6-dimethyl-4,4-dioxo-5,6-dihydro-4H-4lambda6-[1,4,3]oxathiazin-2-ylamino}-3-(2-fluoro-phenyl)-propan-1-ol] displayed an IC50 of 32 nM. `CC1(C)OC(N[C@@H](CCO)c2ccccc2F)=NS(=O)(=O)[C@H]1Cc1ccc(C2CCN(C3CC3)CC2)cc1` [Example 42, (S)-3-{(S)-5-[4-(1-Cyclopropyl-piperidin-4-yl)-benzyl]-6,6-dimethyl-4,4-dioxo-5,6-dihydro-4H-4lambda6-[1,4,3]oxathiazin-2-ylamino}-3-(2-fluoro-phenyl)-propan-1-ol] showed a half-maximal inhibitory concentration (IC50) of 5 nM. `C[C@H](NC1=NS(=O)(=O)C(Cc2ccc(C3CCN(C4CC4)CC3)cc2)C(C)(C)O1)c1ccccc1F` (stereo partly drawn) [Example 43, {5-[4-(1-Cyclopropyl-piperidin-4-yl)-benzyl]-6,6-dimethyl-4,4-dioxo-5,6-dihydro-4H-4lambda6-[1,4,3]oxathiazin-2-yl}-[(S)-1-(2-fluorophenyl)-ethyl]-amine] showed an IC50 of 11 nM. For `COC(=O)N1CCC(c2ccc(CC3C(C)(C)OC(N[C@@H](C)c4ccccc4F)=NS3(=O)=O)cn2)CC1` (stereo partly drawn) [Example 44, 5-{2-[(S)-1-(2-fluorophenyl)-ethylamino]-6,6-dimethyl-4,4-dioxo-5,6-dihydro-4H-4lambda6-[1,4,3]oxathiazin-5-ylmethyl}-3′,4′,5′,6′-tetrahydro-2′H-[2,4′]bipyridinyl-1′-carboxylic acid methyl ester] the value was 5 nM. In turn, `C[C@H](NC1=NS(=O)(=O)[C@H](Cc2ccc(N3CCNCC3)cc2)C(C)(C)O1)c1ccccc1F` [Example 45, [(R)-6,6-Dimethyl-4,4-dioxo-5-(4-piperazin-1-yl-benzyl)-5,6-dihydro-4H-4lambda6-[1,4,3]oxathiazin-2-yl]-[(S)-1-(2-fluorophenyl)-ethyl]-amine] came in with an IC50 of 44 nM. Consider `C[C@H](NC1=NS(=O)(=O)[C@H](Cc2ccc(C3CCN(C)CC3)cc2)C(C)(C)O1)c1ccccc1F` [Example 50], for which the IC50 came out at 52 nM. This IC50 and that of the compound before are within 1.5-fold of each other. Regarding `C[C@H](NC1=NS(=O)(=O)[C@@H](Cc2ccc(C3CCN(C)CC3)cc2)C(C)(C)O1)c1ccccc1F` [Example 51], the IC50 turned out to be 6 nM.

Take `C[C@H](NC1=NS(=O)(=O)[C@H](Cc2ccc(NCCN(C)C)cc2)C(C)(C)O1)c1ccccc1F` [Example 52, N-(4-{(R)-2-[(S)-1-(2-fluorophenyl)-ethylamino]-dimethyl-4,4-dioxo-5,6-dihydro-4H-4lambda6-[1,4,3]oxathiazin-5-ylmethyl}-phenyl)-N′,N′,- dimethyl-ethane-1,2-diamine]: the half-inhibitory concentration (IC50) stood at 62 nM.

Turning to `C[C@H](NC1=NS(=O)(=O)[C@@H](Cc2ccc(C3CCN(C4COC4)CC3)cc2)C(C)(C)O1)c1ccccc1F` [Example 53, {(S)-6,6-Dimethyl-5-[4-(1-oxetan-3-yl-piperidin-4-yl)-benzyl]-4,4-dioxo-5,6-dihydro-4H-4lambda6-[1,4,3]oxathiazin-2-yl}-[(S)-1-(2-fluorophenyl)-ethyl]-amine], the IC50 stood at 9 nM. Against the preceding compound, the IC50 is about 6.9-fold lower. Consider `C[C@H](NC1=NS(=O)(=O)[C@@H](Cc2ccc(OCC(C)(C)N)cc2)C(C)(C)O1)c1ccccc1F` [Example 55, {(S)-5-[4-(2-Amino-2-methyl-propoxy)-benzyl]-6,6-dimethyl-4,4-dioxo-5,6-dihydro-4H-4lambda6-[1,4,3]oxathiazin-2-yl}-[(S)-1-(2-fluorophenyl)-ethyl]-amine], for which the concentration for half-maximal inhibition (IC50) worked out at 8 nM. This IC50 and that of the compound before are within 1.5-fold of each other.

On to `C[C@H](NC1=NS(=O)(=O)C(Cc2ccc(C3CCN(C4COC4)CC3)nc2)C(C)(C)O1)c1ccccc1F` (stereo partly drawn) [Example 56, [6,6-Dimethyl-5-(1′-oxetan-3-yl-1′,2′,3′,4′,5′,6′-hexahydro-[2,4′]bipyridinyl-5-ylmethyl)-4,4-dioxo-5,6-dihydro-4H-4lambda6-[1,4,3]oxathiazin-2-yl]-[(S)-1-(2-fluorophenyl)-ethyl]-amine], for which the 50% inhibitory concentration (IC50) worked out at 24 nM. This IC50 lies about 3-fold higher than the previous one.
